Reference: US20080199527A1, “Enteric Coated Azithromycin Multiparticulates” (Pfizer Inc., priority 2004, published 2008)

Assay: Reactivity of enteric coating materials with azithromycin: ester formation in 50/50 mixtures, LC/MS
Type: physicochemical
Conditions: 50/50 (w/w) mixture of azithromycin and material, 50° C. and 20% RH
Protocol: The reactivity of the materials useful for forming enteric coatings listed in Table 1 with azithromycin was determined as follows. […] (CAT), and triacetin, were prepared by adding equal weights of azithromycin and the material to a mortar and mixing with a spatula. […] Azithromycin esters were identified in each of the mixtures by LC/MS detection. […] The sample solutions were then filtered with a 0.45 μm nylon syringe filter. The sample solutions were then analyzed by HPLC using a Hypersil BDS C18 4.6 mm×250 mm (5 μm) HPLC column on a Hewlett Packard HP1100 liquid chromatograph. The mobile phase employed for sample elution was a gradient of isopropyl alcohol and 25 mM ammonium acetate buffer (pH approximately 7) as follows: initial conditions of 50/50 (v/v) isopropyl alcohol/ammonium acetate; the isopropyl alcohol percentage was then increased to 100% over 30 minutes and held at 100% for an additional 15 minutes. The flow rate was 0.80 mL/min. The method used a 75 μL injection volume and a 43° C. column temperature. A Finnigan LCQ Classic mass spectrometer was used for detection. […] Azithromycin ester values were calculated from the MS peak areas based on an external azithromycin standard. […] The results of this analysis are shown below as are the measured rates of ester formation (Re) at 50° C.

Re at 50° C. (rate of ester formation): 6.5 × 10^−2 wt %/day
Concentration of Azithromycin Esters (storage time 10 days): 0.65 wt %
Compound: CC(=O)OCC(COC(C)=O)OC(C)=O [Triacetin, triacetin]
